Data on four compounds can be found in ChEMBL document CHEMBL1201862, “PubChem BioAssay data set” (2004).

The source made the active and inactive calls.

Experiment [1] concerns the target T1, Cannabinoid receptor 1 (Homo sapiens, UniProt P21554). Put plainly: SAR analysis of agonists of the Cannabinoid Receptor 1 using an Image-Based Assay - Set 2. [Related pubchem assays (depositor defined):AID2013, AID2026]. It counts as functional.
For experiment [2], the target named is G-protein coupled receptor 55 (Homo sapiens, UniProt Q9Y2T6). Put plainly: GPR55 antagonists blocking LPI-driven arrestin recruitment, primary screen, imaging, U2OS, beta-arrestin-GFP, LPI agonist (AID 2013).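 Further: antagonist potency measured as reduced agonist-driven arrestin aggregation.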 It counts as functional. (In general: Activated receptors often draw arrestin, which recruitment assays turn into a signal.)
Sequence of G-protein coupled receptor 55 (Q9Y2T6 whole entry): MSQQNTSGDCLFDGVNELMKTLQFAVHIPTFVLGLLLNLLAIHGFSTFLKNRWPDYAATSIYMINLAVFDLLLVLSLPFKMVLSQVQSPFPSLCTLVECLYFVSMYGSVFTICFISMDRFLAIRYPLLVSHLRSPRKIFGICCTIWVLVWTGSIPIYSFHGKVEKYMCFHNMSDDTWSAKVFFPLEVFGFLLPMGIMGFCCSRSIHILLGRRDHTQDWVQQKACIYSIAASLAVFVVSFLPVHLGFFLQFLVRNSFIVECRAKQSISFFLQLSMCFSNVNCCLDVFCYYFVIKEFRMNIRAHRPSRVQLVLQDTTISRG
The target of experiment [3] is T2, Cannabinoid receptor 2 (Homo sapiens, UniProt P34972). Put plainly: SAR analysis of antagonists of the Cannabinoid Receptor 2 using an Image-Based Assay. [Related pubchem assays (depositor defined):AID2013, AID2026]. It counts as functional.
T2 sequence (P34972 whole entry): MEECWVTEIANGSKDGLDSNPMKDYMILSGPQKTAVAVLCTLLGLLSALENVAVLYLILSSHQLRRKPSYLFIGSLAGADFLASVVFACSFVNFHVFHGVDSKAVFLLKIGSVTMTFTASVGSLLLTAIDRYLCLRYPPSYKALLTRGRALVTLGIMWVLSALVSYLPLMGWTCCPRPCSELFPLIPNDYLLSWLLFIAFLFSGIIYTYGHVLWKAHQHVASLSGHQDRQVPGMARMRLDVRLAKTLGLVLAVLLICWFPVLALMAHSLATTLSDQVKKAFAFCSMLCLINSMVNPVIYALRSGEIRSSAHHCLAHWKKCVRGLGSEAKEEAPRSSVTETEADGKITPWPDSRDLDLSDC
The target of experiment [4] is T3, G-protein coupled receptor 35 (Homo sapiens, UniProt Q9HC97). Kind of experiment: SAR analysis of Agonists of the GPR35 Receptor using an Image-Based Assay - Set 2. [Related pubchem assays (depositor defined):AID2013, AID2026]. It counts as functional.
T3 sequence (Q9HC97 whole entry): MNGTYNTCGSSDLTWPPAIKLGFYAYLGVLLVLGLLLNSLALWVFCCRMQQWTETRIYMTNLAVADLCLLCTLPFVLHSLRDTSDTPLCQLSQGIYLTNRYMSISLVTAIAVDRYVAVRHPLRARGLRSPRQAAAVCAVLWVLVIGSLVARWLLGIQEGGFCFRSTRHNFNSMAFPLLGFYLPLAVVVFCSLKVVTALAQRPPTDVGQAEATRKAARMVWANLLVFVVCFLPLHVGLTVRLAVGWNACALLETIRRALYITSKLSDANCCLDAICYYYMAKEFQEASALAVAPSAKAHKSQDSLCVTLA
Experiment [5] addresses T3, G-protein coupled receptor 35. Kind of experiment: SAR analysis of Antagonists of the GPR35 Receptor using an Image-Based Assay - Set 3. [Related pubchem assays (depositor defined):AID2013, AID2026]. Format: functional.
In experiment [6] the target is T1, Cannabinoid receptor 1. Kind of experiment: SAR analysis of antagonists of the Cannabinoid Receptor 1 using an Image-Based Assay - Set 2. [Related pubchem assays (depositor defined):AID2013, AID2026]. It counts as functional.
The target in experiment [7] is T2, Cannabinoid receptor 2. Put plainly: SAR analysis of agonists of the Cannabinoid Receptor 2 using an Image-Based Assay. [Related pubchem assays (depositor defined):AID2013, AID2026]. It counts as functional.
The test system of experiment [8] is Vero. Kind of experiment: Vero E6 cell cytotoxicity, SAR follow-up, cytotoxicity control for West Nile virus antiviral project, synthesized analogs (AID 2244). It counts as functional. As to conditions: Chlorocebus sabaeus.
Experiment [9] relates to Vero. Kind of experiment: West Nile virus CPE inhibition, SAR follow-up, cell-based, synthesized analogs (AID 2238). Format: functional. The note with it: Chlorocebus sabaeus.
Experiment [10] has as its system Vero. Put plainly: cytotoxicity of synthesized analogs in Vero 76, SAR follow-up, cytotoxicity control for West Nile virus antiviral project, Vero 76 cells (AID 2414). Format: functional. As to conditions: Chlorocebus sabaeus.
Experiment [11] has as its system Vero. Kind of experiment: cytotoxicity of synthesized analogs in Vero cells, SAR follow-up, cytotoxicity control for West Nile virus antiviral project, cell-based, set II (AID 2402). It counts as functional. As to conditions: Chlorocebus sabaeus.
In experiment [12] the test system is Vero. Kind of experiment: West Nile virus antiviral activity, cell-based, CPE readout (AID 1621). Format: functional. As to conditions: Chlorocebus sabaeus.
A short description of experiment [13]: mammalian cell cytotoxicity, dose response, cytotoxicity control, plate reader, cherry-pick samples (AID 504397). Format: functional, cell-based.
Experiment [14] deals with T4, Sphingosine 1-phosphate receptor 4 (Homo sapiens, UniProt O95977).
T4 sequence (O95977 whole entry): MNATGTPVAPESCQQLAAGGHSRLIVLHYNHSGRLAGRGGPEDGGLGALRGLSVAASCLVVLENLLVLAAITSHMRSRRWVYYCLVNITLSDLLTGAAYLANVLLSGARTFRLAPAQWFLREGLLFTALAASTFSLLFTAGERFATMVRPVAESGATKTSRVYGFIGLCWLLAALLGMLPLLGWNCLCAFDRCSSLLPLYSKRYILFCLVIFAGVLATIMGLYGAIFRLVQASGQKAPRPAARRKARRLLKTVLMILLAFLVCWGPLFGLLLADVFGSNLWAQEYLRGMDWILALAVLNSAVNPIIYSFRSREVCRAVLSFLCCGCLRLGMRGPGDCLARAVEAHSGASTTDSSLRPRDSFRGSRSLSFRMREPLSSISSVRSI
Kind of experiment: Fluorescence dose response cell-based high throughput screening assay for agonists of the Sphingosine 1-Phosphate Receptor 4 (S1P4). [Related pubchem assays: 1509 (Primary screen.), 1523 (Confirmation screen in triplicates.)]. It counts as functional.

For experiment [15], the target named is Sphingosine 1-phosphate receptor 1 (Homo sapiens, UniProt P21453). Put plainly: Fluorescence-based counterscreen assay for S1P4 agonists: Cell-based dose response high throughput screening assay to identify agonists of the Sphingosine 1-Phosphate Receptor 1 (S1P1). [Related pubchem assays (depositor defined):AID1509, AID1523, AID1801, AID463107, AID463118, AID463119, AID463122, AID463123, AID463129, AID463225, AID504400, AID504460]. Format: functional. (In general: The purpose of a counterscreen is to sort out artefacts and off-target activity.)
Sequence of Sphingosine 1-phosphate receptor 1 (P21453 whole entry): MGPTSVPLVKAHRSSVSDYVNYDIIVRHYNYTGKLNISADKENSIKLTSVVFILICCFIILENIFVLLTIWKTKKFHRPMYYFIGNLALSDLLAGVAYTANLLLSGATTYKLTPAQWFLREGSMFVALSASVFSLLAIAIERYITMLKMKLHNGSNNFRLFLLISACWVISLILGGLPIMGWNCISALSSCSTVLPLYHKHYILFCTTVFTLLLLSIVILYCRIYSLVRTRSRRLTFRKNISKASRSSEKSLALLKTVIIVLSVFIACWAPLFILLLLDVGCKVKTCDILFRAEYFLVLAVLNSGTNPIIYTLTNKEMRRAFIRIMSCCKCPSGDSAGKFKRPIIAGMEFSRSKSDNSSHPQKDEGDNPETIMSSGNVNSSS

T1 sequence (P21554 whole entry): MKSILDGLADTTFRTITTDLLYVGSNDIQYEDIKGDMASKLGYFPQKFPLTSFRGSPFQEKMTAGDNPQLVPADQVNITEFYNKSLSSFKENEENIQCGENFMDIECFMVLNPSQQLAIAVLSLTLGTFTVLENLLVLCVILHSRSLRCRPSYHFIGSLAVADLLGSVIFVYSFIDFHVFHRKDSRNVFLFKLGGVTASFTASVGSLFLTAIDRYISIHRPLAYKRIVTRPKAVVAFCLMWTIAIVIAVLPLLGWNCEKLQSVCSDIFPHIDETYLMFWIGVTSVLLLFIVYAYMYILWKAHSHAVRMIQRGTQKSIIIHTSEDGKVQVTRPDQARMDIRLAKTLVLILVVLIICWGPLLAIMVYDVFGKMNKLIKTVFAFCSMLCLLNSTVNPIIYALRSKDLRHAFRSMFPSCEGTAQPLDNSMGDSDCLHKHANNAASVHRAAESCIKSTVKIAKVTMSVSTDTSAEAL

On to `Cc1ccc(C2(C(=O)N3CCC(n4nc(-c5ccccc5)oc4=O)CC3)CC2)cc1`, for which the EC50 (on Cannabinoid receptor 1 [1]; in experiment [4]; on Cannabinoid receptor 2 [7]) was > 32 µM (inactive) throughout. The IC50 – broadly, the midpoint of a concentration-inhibition curve – in [2] is 4.28 µM (active); on Cannabinoid receptor 2 [3] it was > 32 µM (inactive); in [5] it was > 32 µM (inactive); on Cannabinoid receptor 1 [6], 17.7 µM (inactive).

With `O=C(CSc1nc2ccccc2c(=O)n1-c1ccc(F)cc1)Nc1ccc2c(c1)CCC2`, the CC50 (as a rule, the concentration at which the toxic effect on the cells reaches its halfway point) is > 80 µM (active) in the experiment with Vero [8], > 133 µM (active) in the experiment on Vero [10] and > 200 µM (active) in the experiment with Vero [11]. In addition, the 50% inhibitory concentration (IC50) was 24.5 µM (active) in the experiment with Vero [9] and 20.6 µM (active) with Vero [12].

On to `C=CCn1c(SCc2ccc(C#N)cc2)nnc1-c1ccc(C)cc1`, for which the half-maximal activity concentration (AC50) – broadly, the concentration at which the activity in the assay is half-maximal – in [13] was 98.3 µM (active).

Consider `CC(=O)c1cc2ccc(O)cc2oc1=O`, for which the EC50 (in general, the midpoint of the concentration-response curve) in [14] was 1.88 µM (active); in experiment [15], 4.14 µM (active).
